This passage reports IC50 results from US8338465B2, “Cyclic carboxylic acid rhodanine derivatives for the treatment and prevention of tuberculosis” (priority 2006, dated 2012).

In general, IC50 refers to the point on the concentration scale where inhibition reaches its midpoint. The low end stands for greater potency, the high end for weaker potency.

The target in this assay is T1, dihydrolipoamide acyltransferase (DlaT) (Mycobacterium tuberculosis, UniProt P9WIS7).
T1 sequence (P9WIS7 1-553): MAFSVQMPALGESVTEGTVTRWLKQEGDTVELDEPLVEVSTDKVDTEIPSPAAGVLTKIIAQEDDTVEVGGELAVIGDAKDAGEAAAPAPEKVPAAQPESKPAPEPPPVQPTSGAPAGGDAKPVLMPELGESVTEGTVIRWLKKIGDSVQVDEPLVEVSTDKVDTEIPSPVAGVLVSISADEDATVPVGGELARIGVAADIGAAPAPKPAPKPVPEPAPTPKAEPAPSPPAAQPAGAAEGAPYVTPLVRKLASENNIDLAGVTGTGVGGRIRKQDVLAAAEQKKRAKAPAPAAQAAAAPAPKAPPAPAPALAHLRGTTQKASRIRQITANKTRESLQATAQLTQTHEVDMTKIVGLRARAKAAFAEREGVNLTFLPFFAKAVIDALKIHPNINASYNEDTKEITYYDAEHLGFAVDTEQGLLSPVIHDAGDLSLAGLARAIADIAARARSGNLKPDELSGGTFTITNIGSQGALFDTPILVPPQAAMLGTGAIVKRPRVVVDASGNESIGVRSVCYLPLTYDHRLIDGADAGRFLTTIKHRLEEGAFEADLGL
Description: DlaT inhibition (Dlat IC50); DTNB peroxidase assay with Lpd, DlaT and AhpD. It is filed as biochemical. Conditions: Dlat IC50 category.
`O=C(O)C1CCCC(N2C(=O)C(=Cc3ccc(-c4ccc(F)cc4)o3)SC2=S)C1` (centres unmarked) [Compound C43, 3-{5-[1-[5-(4-fluoro-phenyl)-furan-2-yl]-methylidene]-4-oxo-2-thioxo-thiazolidin-3-yl}-cyclohexanecarboxylic acid] had an IC50 of less than 10 µM. The figure for `O=C(O)C1CCC(N2C(=O)C(=Cc3ccc(-c4ccccc4F)o3)SC2=S)CC1` (centres unmarked) [Compound C44, 4-{5-[1-[5-(2-fluoro-phenyl)-furan-2-yl]-methylidene]-4-oxo-2-thioxo-thiazolidin-3-yl}-cyclohexanecarboxylic acid] is less than 10 µM; for `Cc1ccc(-c2ccc(C=C3SC(=S)N(C4CCC(C(=O)O)CC4)C3=O)o2)cc1` (centres unmarked) [Compound C45, 4-{4-oxo-2-thioxo-5-[1-(5-p-tolyl-furan-2-yl)-methylidene]-thiazolidin-3-yl}-cyclohexanecarboxylic acid] it is less than 10 µM. `Cc1ccc(-c2ccc(C=C3SC(=S)N(C4CCC(C(=O)O)CC4)C3=O)o2)c(F)c1` (centres unmarked) [Compound C46, 4-{5-[1-[5-(2-fluoro-4-methyl-phenyl)-furan-2-yl]-methylidene]-4-oxo-2-thioxo-thiazolidin-3-yl}-cyclohexanecarboxylic acid] gave a concentration for half-maximal inhibition (IC50) of less than 10 µM.

`O=C(O)C1CCC(N2C(=O)C(=Cc3ccc(-c4ccccc4F)s3)SC2=S)CC1` (centres unmarked) [Compound C47, 4-{5-[1-[5-(2-fluoro-phenyl)-thiophen-2-yl]-methylidene]-4-oxo-2-thioxo-thiazolidin-3-yl}-cyclohexanecarboxylic acid] had an IC50 of 11 to 40 µM.

Regarding `CCOc1ccc(-c2ccc(C=C3SC(=S)N(C4CCCC(C(=O)O)C4)C3=O)o2)cc1` (centres unmarked) [Compound C51, 3-{5-[1-[5-(4-ethoxy-phenyl)-furan-2-yl]-methylidene]-4-oxo-2-thioxo-thiazolidin-3-yl}-cyclohexanecarboxylic acid], the IC50 was less than 10 µM. Regarding `CCOc1ccc(-c2ccc(C=C3SC(=S)N(C4CCC(C(=O)O)CC4)C3=O)o2)cc1` (centres unmarked) [Compound C52, 4-{5-[1-[5-(4-ethoxy-phenyl)-furan-2-yl]-methylidene]-4-oxo-2-thioxo-thiazolidin-3-yl}-cyclohexanecarboxylic acid], the IC50 is less than 10 µM.

Molecule `COc1ccc(-c2ccc(C=C3SC(=S)N(C4CCC(C(=O)O)CC4)C3=O)o2)cc1F` (centres unmarked) [Compound C53, 4-{5-[1-[5-(3-fluoro-4-methoxy-phenyl)-furan-2-yl]-methylidene]-4-oxo-2-thioxo-thiazolidin-3-yl}-cyclohexanecarboxylic acid] gave an IC50 of less than 10 µM. For the molecule `CSc1ccccc1-c1ccc(C=C2SC(=S)N(C3CCC(C(=O)O)CC3)C2=O)o1` (centres unmarked) [Compound C54, 4-{5-[1-[5-(2-methylsulfanyl-phenyl)-furan-2-yl]-methylidene]-4-oxo-2-thioxo-thiazolidin-3-yl}-cyclohexanecarboxylic acid], the concentration for half-maximal inhibition (IC50) is less than 10 µM.

`O=C(O)C1CCC(N2C(=O)C(=Cc3ccc(-c4ccc(C(F)(F)F)cc4)o3)SC2=S)CC1` (centres unmarked) [Compound C55, 4-{4-oxo-2-thioxo-5-[1-[5-(4-trifluoromethyl-phenyl)-furan-2-yl]-methylidene]-thiazolidin-3-yl}-cyclohexanecarboxylic acid] returned an IC50 of 11 to 40 µM. With `O=C(O)C1CCCC(N2C(=O)C(=Cc3ccc(-c4ccc(Cl)cc4)o3)SC2=S)C1` (centres unmarked) [Compound C56, 3-{5-[1-[5-(4-chloro-phenyl)-furan-2-yl]-methylidene]-4-oxo-2-thioxo-thiazolidin-3-yl}-cyclohexanecarboxylic acid] the figure was less than 10 µM; with `CCCCOc1ccc(-c2ccc(C=C3SC(=S)N(C4CCC(C(=O)O)CC4)C3=O)o2)cc1` (centres unmarked) [Compound C57, 4-{5-[1-[5-(4-butoxy-phenyl)-furan-2-yl]-methylidene]-4-oxo-2-thioxo-thiazolidin-3-yl}-cyclohexanecarboxylic acid], 11 to 40 µM. Turning to `CS(=O)(=O)c1ccc(-c2ccc(C=C3SC(=S)N(C4CCCC(C(=O)O)C4)C3=O)o2)cc1` (centres unmarked) [Compound C58, 3-{5-[5-(4-Methanesulfonyl-phenyl)-furan-2-ylmethylene]-4-oxo-2-thioxo-thiazolidin-3-yl}-cyclohexanecarboxylic acid], the 50% inhibitory concentration (IC50) was less than 10 µM. Regarding `CS(=O)(=O)c1ccc(-c2ccc(C=C3SC(=S)N(C4CCC(C(=O)O)CC4)C3=O)o2)cc1` (centres unmarked) [Compound C59, 4-{5-[5-(4-Methanesulfonyl-phenyl)-furan-2-ylmethylene]-4-oxo-2-thioxo-thiazolidin-3-yl}-cyclohexanecarboxylic acid], the IC50 is less than 10 µM. Molecule `Cc1ccccc1-c1ccc(C=C2SC(=S)N(C3CCCC(C(=O)O)C3)C2=O)o1` (centres unmarked) [Compound C60, 3-{4-oxo-2-thioxo-5-[1-(5-o-tolyl-furan-2-yl)-methylidene]-thiazolidin-3-yl}-cyclohexanecarboxylic acid] registered a half-inhibitory concentration (IC50) of less than 10 µM. The figure for `Cc1ccccc1-c1ccc(C=C2SC(=S)N(C3CCC(C(=O)O)CC3)C2=O)o1` (centres unmarked) [Compound C61, 4-{4-oxo-2-thioxo-5-[1-(5-o-tolyl-furan-2-yl)-methylidene]-thiazolidin-3-yl}-cyclohexanecarboxylic acid] is 11 to 40 µM; for `CSc1cccc(-c2ccc(C=C3SC(=S)N(C4CCCC(C(=O)O)C4)C3=O)o2)c1` (centres unmarked) [Compound C62, 3-{5-[1-[5-(3-methylsulfanyl-phenyl)-furan-2-yl]-methylidene]-4-oxo-2-thioxo-thiazolidin-3-yl}-cyclohexanecarboxylic acid] it is less than 10 µM; for `CSc1cccc(-c2ccc(C=C3SC(=S)N(C4CCC(C(=O)O)CC4)C3=O)o2)c1` (centres unmarked) [Compound C63, 4-{5-[1-[5-(3-methylsulfanyl-phenyl)-furan-2-yl]-methylidene]-4-oxo-2-thioxo-thiazolidin-3-yl}-cyclohexanecarboxylic acid] it is less than 10 µM.

`CSc1ccc(-c2ccc(C=C3SC(=S)N(C4CCCC(C(=O)O)C4)C3=O)o2)cc1` (centres unmarked) [Compound C64, 3-{5-[1-[5-(4-methylsulfanyl-phenyl)-furan-2-yl]-methylidene]-4-oxo-2-thioxo-thiazolidin-3-yl}-cyclohexanecarboxylic acid] had a concentration for half-maximal inhibition (IC50) of less than 10 µM.

In turn, `CSc1ccc(-c2ccc(C=C3SC(=S)N(C4CCC(C(=O)O)CC4)C3=O)o2)cc1` (centres unmarked) [Compound C65, 4-{5-[1-[5-(4-methylsulfanyl-phenyl)-furan-2-yl]-methylidene]-4-oxo-2-thioxo-thiazolidin-3-yl}-cyclohexanecarboxylic acid] came in with an IC50 of less than 10 µM. Regarding `CC(C)Oc1ccc(-c2ccc(C=C3SC(=S)N(C4CCCC(C(=O)O)C4)C3=O)o2)cc1` (centres unmarked) [Compound C66, 3-{5-[5-(4-Isopropoxy-phenyl)-furan-2-ylmethylene]-4-oxo-2-thioxo-thiazolidin-3-yl}-cyclohexanecarboxylic acid], the half-inhibitory concentration (IC50) was less than 10 µM. With `CC(C)Oc1ccc(-c2ccc(C=C3SC(=S)N(C4CCC(C(=O)O)CC4)C3=O)o2)cc1` (centres unmarked) [Compound C67, 4-{5-[5-(4-Isopropoxy-phenyl)-furan-2-ylmethylene]-4-oxo-2-thioxo-thiazolidin-3-yl}-cyclohexanecarboxylic acid] the figure was less than 10 µM; with `Cc1ccc(-c2cccc(C=C3SC(=S)N(C4CCCC(C(=O)O)C4)C3=O)c2)cc1` (centres unmarked) [Compound C68, 3-{5-[1-(4′-methyl-biphenyl-3-yl)-methylidene]-4-oxo-2-thioxo-thiazolidin-3-yl}cyclohexanecarboxylic acid], 41 to 80 µM.
